In patent publication US20230393122A1 (priority 2022, published 2023):
Where two headings read alike, the source gives them in different places.

Legend:
Format in all cases: cell-based
[1] = tested on: SARS-CoV-2 Omicron variant; experiment: Viral load reduction assay in naïve-eSTB cells; settings: compared with EPSC-eSTBs
[2] = tested on: SARS-CoV-2 Delta variant; experiment: Viral load reduction assay in naïve-eSTB cells; settings: compared with EPSC-eSTBs
[3] = tested on: SARS-CoV-2 Omicron variant; experiment: Viral load reduction assay in EPSC-derived eSTB cells (qRT-PCR of supernatant viral copies); settings: for IC50: read-out: IC50 for Omicron variant in eSTBs
[4] = tested on: SARS-CoV-2 Delta variant; experiment: as above; settings: for IC50: read-out: IC50 for Delta variant in eSTBs
[5] = Severe acute respiratory syndrome coronavirus 2, 48 h

**Q.** What does the source list for CC(C)C[C@H](NC(=O)OCc1ccccc1)C(=O)N[C@@H](C[C@@H]1CCNC1=O)C(O)S(=O)(=O)[O-].[Na+] (some centres unmarked) [GC376]?
**A.** IC50 against Omicron variant in naïve-eSTBs [1]: similarly low; IC50 against Delta variant in naïve-eSTBs [2]: similarly low; Viral copy in the supernatant, Omicron (FIG. 17B) ([3]; EPSC-derived eSTB cells): dose-dependent inhibition; Viral copy in the supernatant, Delta (FIG. 17B) ([4]; EPSC-derived eSTB cells): dose-dependent inhibition

**Q.** For CC(C)C[C@H](NC(=O)OCc1ccccc1)C(=O)N[C@@H](CC1CCNC1=O)C(O)S(=O)(=O)O (some centres unmarked) [GC376], which IC50 [3] is on record?
**A.** 31.4 ± 4.1 nM

**Q.** What about the IC50 [4] of the same compound?
**A.** 25.5 ± 3.2 nM

**Q.** For CCC(CC)COC(=O)[C@H](C)N[P@](=O)(OC[C@H]1O[C@@](C#N)(c2ccc3c(N)ncnn23)[C@H](O)[C@@H]1O)Oc1ccccc1 [remdesivir], which IC50 [3, 5] is on record?
**A.** 4.1 ± 1.5 nM

**Q.** What about the IC50 [4, 5] of the same compound?
**A.** 5.5 ± 1.2 nM
